According to ChEMBL document CHEMBL1126412, “RP 70676: A potent systematically available inhibitor of acyl-CoA:cholesterol O-acyl transferase (ACAT)” (Bioorg Med Chem Lett, 1992):
pIC50: −log10 of the molar value.

Assays:
[1] = biological target: T1, Sterol O-acyltransferase 1 (Rattus norvegicus, UniProt O70536); assay: Concentration required for the inhibition of cholesterol O-acyl transferase (ACAT) from rat liver
T1 sequence (O70536 whole entry): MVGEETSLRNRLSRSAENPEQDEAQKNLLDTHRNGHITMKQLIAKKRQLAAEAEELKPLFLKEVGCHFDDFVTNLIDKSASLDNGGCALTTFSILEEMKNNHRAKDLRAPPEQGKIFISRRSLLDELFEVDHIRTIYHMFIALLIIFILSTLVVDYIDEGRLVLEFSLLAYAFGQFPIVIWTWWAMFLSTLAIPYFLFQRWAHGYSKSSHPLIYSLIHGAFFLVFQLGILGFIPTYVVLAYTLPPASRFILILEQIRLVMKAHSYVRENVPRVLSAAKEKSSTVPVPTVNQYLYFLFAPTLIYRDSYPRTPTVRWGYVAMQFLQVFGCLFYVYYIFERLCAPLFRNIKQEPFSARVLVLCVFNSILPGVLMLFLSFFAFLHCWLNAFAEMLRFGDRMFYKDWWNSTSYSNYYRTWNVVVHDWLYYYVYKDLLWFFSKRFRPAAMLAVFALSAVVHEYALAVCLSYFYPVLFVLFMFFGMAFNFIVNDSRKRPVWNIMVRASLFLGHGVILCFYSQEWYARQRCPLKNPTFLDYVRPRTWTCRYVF

[2] = biological target: T2, Acyl-CoA:cholesterol acyltransferase (Oryctolagus cuniculus, UniProt Q95214); assay: Concentration required for the inhibition of cholesterol O-acyl transferase (ACAT) from cholesterol fed rabbit liver
T2 sequence (Q95214 whole entry): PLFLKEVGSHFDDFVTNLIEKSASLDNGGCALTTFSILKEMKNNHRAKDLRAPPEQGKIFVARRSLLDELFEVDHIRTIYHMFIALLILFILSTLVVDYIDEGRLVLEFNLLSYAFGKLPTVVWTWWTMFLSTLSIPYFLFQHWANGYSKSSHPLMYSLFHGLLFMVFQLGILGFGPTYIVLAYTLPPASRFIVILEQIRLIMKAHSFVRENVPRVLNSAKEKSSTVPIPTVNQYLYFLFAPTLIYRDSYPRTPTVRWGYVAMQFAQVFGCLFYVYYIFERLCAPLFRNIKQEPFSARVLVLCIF

[3] = biological target: T3, Sterol O-acyltransferase 1 (Cricetulus griseus, UniProt Q60457); assay: Concentration required for the inhibition of Cholesterol O-acyl transferase from hamster liver
T3 sequence (Q60457 whole entry): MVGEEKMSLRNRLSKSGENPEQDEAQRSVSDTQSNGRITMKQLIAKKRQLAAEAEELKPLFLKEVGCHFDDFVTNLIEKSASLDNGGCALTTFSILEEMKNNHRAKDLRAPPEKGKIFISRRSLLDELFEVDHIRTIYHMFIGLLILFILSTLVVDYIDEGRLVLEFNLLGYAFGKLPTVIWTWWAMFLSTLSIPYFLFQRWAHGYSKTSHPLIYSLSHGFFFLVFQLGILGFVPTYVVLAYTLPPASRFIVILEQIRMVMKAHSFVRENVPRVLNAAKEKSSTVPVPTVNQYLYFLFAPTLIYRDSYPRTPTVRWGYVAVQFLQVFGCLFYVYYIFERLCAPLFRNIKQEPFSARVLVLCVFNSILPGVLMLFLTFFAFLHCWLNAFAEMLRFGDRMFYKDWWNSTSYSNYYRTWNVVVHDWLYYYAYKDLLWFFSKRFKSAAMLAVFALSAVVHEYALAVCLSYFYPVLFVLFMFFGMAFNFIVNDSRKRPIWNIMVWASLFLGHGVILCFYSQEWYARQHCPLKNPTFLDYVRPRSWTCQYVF

Oryctolagus cuniculus [4] = species on record: Oryctolagus cuniculus; assay: Evaluated for the reduction of plasma cholesterol level in NZW rabbits with 0.25% cholesterol in diet; type: functional
Oryctolagus cuniculus [5] = species on record: Oryctolagus cuniculus; assay: Evaluated for the reduction of plasma cholesterol level in NZW rabbits with 5% cholesterol in diet; AUC; mM.days; type: functional
Oryctolagus cuniculus [6] = species on record: Oryctolagus cuniculus; assay: Percent change of cholesterol ester level in thoracic aorta of NZW rabbits form control; type: functional
Oryctolagus cuniculus [7] = species on record: Oryctolagus cuniculus; assay: Percent change of cholesterol ester level in thoracic aorta of NZW rabbits from control; type: functional
Oryctolagus cuniculus [8] = species on record: Oryctolagus cuniculus; assay: Percent change of cholesterol esters level in abdominal aorta of NZW rabbits form control; type: functional
Oryctolagus cuniculus [9] = species on record: Oryctolagus cuniculus; assay: Percent change of cholesterol esters level in abdominal aorta of NZW rabbits from control; type: functional
Oryctolagus cuniculus [10] = species on record: Oryctolagus cuniculus; assay: Percent change of free cholesterol level in abdominal aorta of NZW rabbits form control; type: functional
Oryctolagus cuniculus [11] = species on record: Oryctolagus cuniculus; assay: Percent change of free cholesterol level in abdominal aorta of NZW rabbits from control; type: functional
Oryctolagus cuniculus [12] = species on record: Oryctolagus cuniculus; assay: Percent change of free cholesterol levels in thoracic aorta of NZW rabbits form control; type: functional
Oryctolagus cuniculus [13] = species on record: Oryctolagus cuniculus; assay: Percent change of free cholesterol levels in thoracic aorta of NZW rabbits from control; type: functional
Oryctolagus cuniculus [14] = species on record: Oryctolagus cuniculus; assay: Percent change of plasma cholesterol level in NZW rabbits form control; type: functional
Oryctolagus cuniculus [15] = species on record: Oryctolagus cuniculus; assay: Percent change of plasma cholesterol level in NZW rabbits from control; type: functional

Row | SMILES | pIC50 [1] | pIC50 [2] | other results
1 | Cn1ccnc1S(=O)(=O)CCCSc1nc(-c2ccccc2)c(-c2ccccc2)[nH]1 | 7.96 | 5.10 | –
2 | Cn1ccnc1SCCCCSc1nc(-c2ccccc2)c(-c2ccccc2)[nH]1 | 7.42 | 6.74 | –
3 | c1ccc(-c2nc(SCCCCCn3cccn3)[nH]c2-c2ccccc2)cc1 | 7.62 | 6.55 | –
4 | c1ccc(-c2nc(SCCCCCCn3cccn3)[nH]c2-c2ccccc2)cc1 | 7.32 | 6.23 | –
5 | c1ccc(-c2nc(SCCCn3cccn3)[nH]c2-c2ccccc2)cc1 | 7.30 | < 6.00 | –
6 | c1ccc(-c2nc(SCCCCCSc3ncc[nH]3)[nH]c2-c2ccccc2)cc1 | 7.36 | 6.06 | –
7 | Cc1cc(C)n(CCCCCSc2nc(-c3ccccc3)c(-c3ccccc3)[nH]2)n1 | – | – | pIC50 [3]: 7.92; AUC (Oryctolagus cuniculus [4]): 776 mM·days; AUC (Oryctolagus cuniculus [5]): 1440 mM·days; Change (Oryctolagus cuniculus [6]): <-40%; Change (Oryctolagus cuniculus [7]): <-42%; Change (Oryctolagus cuniculus [8]): <-46%; Change (Oryctolagus cuniculus [9]): <-40%; Change (Oryctolagus cuniculus [10]): <-36%; Change (Oryctolagus cuniculus [11]): <-27%; Change (Oryctolagus cuniculus [12]): <-44%; Change (Oryctolagus cuniculus [13]): <-36%; Change (Oryctolagus cuniculus [14]): <-46%; Change (Oryctolagus cuniculus [15]): <-40%
8 | Cn1ccnc1SCCCSc1nc(-c2ccccc2)c(-c2ccccc2)[nH]1 | 7.85 | 6.01 | –
9 | CCCCCCCN(CCCCCSc1nc(-c2ccccc2)c(-c2ccccc2)[nH]1)C(=O)Nc1ccc(F)cc1F [LECIMIBIDE] | 8.00 | – | –
